# Assay results as given in Sander's compilation of Henry's law constants.
# Experiment: Henry solubility constant Hcp at 298.15 K (mol/(m3 Pa))
# [1] = reference: Bakierowska and Trzeszczyński (2003)
# [2] = reference: Buttery et al. (1971)
# [3] = reference: Ondo and Dohnal (2007)
# [4] = reference: Bowden et al. (1998a)
# [5] = reference: Jönsson et al. (1982)
# [6] = reference: Murphy et al. (1983a)
# [7] = reference: Katrib et al. (2003)
# [8] = reference: Simpson and Lovell (1962)
# [9] = reference: Jantunen and Bidleman (2006)
# [10] = reference: Bernauer and Dohnal (2009)
# [11] = reference: Mabury and Crosby (1996)
# [12] = reference: Chang and Criddle (1995)
compound,measurement,setting,value
C=Cc1ccccc1 [ethenylbenzene],Henry solubility constant Hcp,reference: Bissonette et al. (1990),0.0029
C1=CCCCC1 [cyclohexene],Henry solubility constant Hcp,[1],0.00033
same,Henry solubility constant Hcp,reference: Nielsen et al. (1994),0.00025
COc1nccnc1CC(C)C [2-isobutyl-3-methoxypyrazine],Henry solubility constant Hcp,[2],0.2
COCOC [dimethoxymethane],Henry solubility constant Hcp,[3],0.063
O=C(O)C(Cl)Cl [dichloroethanoic acid],Henry solubility constant Hcp,[4],1200
CCCCCCCC(=O)OCC [ethyl octanoate],Henry solubility constant Hcp,reference: Aprea et al. (2007),0.011
CCCCCCC [heptane],Henry solubility constant Hcp,[5],4.2e-06
same,Henry solubility constant Hcp,reference: Park et al. (1997),5.5e-06
COc1cc(CCC(C)=O)cc(OC)c1O [syringylacetone],Henry solubility constant Hcp,reference: McFall et al. (2020),1.2e+06
"Clc1ccc(Cl)c(-c2cc(Cl)ccc2Cl)c1 [2,2',5,5'-tetrachlorobiphenyl]",Henry solubility constant Hcp,[6],0.045
Cc1cnccn1 [2-methylpyrazine],Henry solubility constant Hcp,[2],4.5
"OCCC(F)(F)C(F)(F)C(F)(F)C(F)(F)C(F)(F)C(F)(F)C(F)(F)C(F)(F)F [1H,1H,2H,2H-perfluorodecan-1-ol]",Henry solubility constant Hcp,reference: Lei et al. (2004),0.00017
same,Henry solubility constant Hcp,reference: Wu and Chang (2011),0.0002
"COC(=O)CC(=O)OC [propanedioic acid, dimethyl ester]",Henry solubility constant Hcp,[7],38
O=C(O)C(Br)Br [dibromoethanoic acid],Henry solubility constant Hcp,[4],2200
C#CCC [1-butyne],Henry solubility constant Hcp,[8],0.00072
C=C(C)[C@@H]1CC=C(C)C(=O)C1 [2-methyl-5-(1-methylethenyl)-2-cyclohexen-1-one],Henry solubility constant Hcp,reference: Amoore and Buttery (1978),0.49
CCCSSCCC [dipropyl disulfide],Henry solubility constant Hcp,reference: Schuhfried et al. (2011),0.0024
"ClC(Cl)=C(c1ccc(Cl)cc1)c1ccc(Cl)cc1 [1,1-dichloro-2,2-bis-(4-chlorophenyl)-ethene]",Henry solubility constant Hcp,[9],0.029
"NCCCCCCN [1,6-hexanediamine]",Henry solubility constant Hcp,reference: Nguyen (2013),1000
CCCCNC(C)=O [N-butylacetamide],Henry solubility constant Hcp,reference: Gibbs et al. (1991),2700
CCC[N+](=O)[O-] [1-nitropropane],Henry solubility constant Hcp,reference: Beneš and Dohnal (1999),0.13
"Clc1ccc(-c2cc(Cl)c(Cl)c(Cl)c2Cl)cc1Cl [2,3,3',4,4',5-hexachlorobiphenyl]",Henry solubility constant Hcp,[6],0.011
C#CC=C [3-buten-1-yne],Henry solubility constant Hcp,[8],0.00038
[He] [helium],Henry solubility constant Hcp,reference: Cady et al. (1922),3.7e-06
same,Henry solubility constant Hcp,reference: Friedman (1954),3.8e-06
same,Henry solubility constant Hcp,reference: Krause and Benson (1989),3.9e-06
same,Henry solubility constant Hcp,reference: Lannung (1930),3.8e-06
same,Henry solubility constant Hcp,reference: Morrison and Johnstone (1954),3.7e-06
same,Henry solubility constant Hcp,reference: von Antropoff (1910),6.3e-06
CC(C)(N)CO [2-amino-2-methyl-1-propanol],Henry solubility constant Hcp,reference: Nguyen (2013),700
ClC1=C(Cl)[C@]2(Cl)[C@@H]3[C@@H](Cl)[C@@H](Cl)C[C@@H]3[C@@]1(Cl)C2(Cl)Cl [cis-chlordane],Henry solubility constant Hcp,[9],0.037
"ClCCCCCCCCCl [1,8-dichlorooctane]",Henry solubility constant Hcp,reference: Sarraute et al. (2006),0.0071
"Cc1cc(C)cc(O)c1 [1-hydroxy-3,5-dimethylbenzene]",Henry solubility constant Hcp,reference: Dohnal and Fenclová (1995),16
CN1CCCC1=O [N-methyl-2-pyrrolidone],Henry solubility constant Hcp,[10],2100
same,Henry solubility constant Hcp,reference: Kim et al. (2000),3100
CNC(=O)Oc1cccc2c1OC(C)(C)C2 [carbofuran],Henry solubility constant Hcp,[11],> 99
CCN(CC)N=O [N-nitrosodiethylamine],Henry solubility constant Hcp,reference: Klein (1982),5.6
same,Henry solubility constant Hcp,reference: Thompson et al. (2018),0.012
CCCCCCCC [octane],Henry solubility constant Hcp,reference: Heidman et al. (1985),3.1e-06
same,Henry solubility constant Hcp,[5],2.9e-06
same,Henry solubility constant Hcp,reference: Park et al. (1997),3.3e-06
"Clc1ccc(-c2c(Cl)cc(Cl)c(Cl)c2Cl)cc1Cl [2,3,3',4,4',6-hexachlorobiphenyl]",Henry solubility constant Hcp,[6],0.015
"Clc1ccc(-c2cc(Cl)c(Cl)c(Cl)c2Cl)c(Cl)c1 [2,2',3,4,4',5-hexachlorobiphenyl]",Henry solubility constant Hcp,[6],0.021
C1COCCN1 [1-oxa-4-azacyclohexane],Henry solubility constant Hcp,reference: Nguyen (2013),190
C/C=C/CCl [(E)-1-chloro-2-butene],Henry solubility constant Hcp,[1],0.0031
"CC(C)(C)CC(C)(C)c1ccc(O)cc1 [4-(1,1,3,3-tetramethylbutyl)-phenol]",Henry solubility constant Hcp,reference: Xie et al. (2004),2.3
C1CN(CCOCCN2CCOCC2)CCO1 [dimorpholinodiethyl ether],Henry solubility constant Hcp,reference: Nguyen (2013),1800
"ClCC(Cl)CCl [1,2,3-trichloropropane]",Henry solubility constant Hcp,reference: Tancrède and Yanagisawa (1990),0.044
O=C1CCCCC1 [cyclohexanone],Henry solubility constant Hcp,reference: Hawthorne et al. (1985),0.82
[2H][2H] [deuterium],Henry solubility constant Hcp,reference: Muccitelli and Wen (1978),7.9e-06
C=COC(C)=O [ethenyl ethanoate],Henry solubility constant Hcp,reference: Böhme et al. (2008),0.02
"Clc1ccc(-c2cc(Cl)c(Cl)cc2Cl)c(Cl)c1 [2,2',4,4',5-pentachlorobiphenyl]",Henry solubility constant Hcp,reference: Charles and Destaillats (2005),0.0088
CC(=O)/C=C/C1=C(C)CCCC1(C)C [β-ionone],Henry solubility constant Hcp,reference: Fichan et al. (1999),1.2
C1CCNCC1 [piperidine],Henry solubility constant Hcp,[10],2.8
"OCCC(F)(F)C(F)(F)C(F)(F)C(F)(F)C(F)(F)C(F)(F)C(F)(F)C(F)(F)C(F)(F)C(F)(F)F [1,1,2,2-tetrahydroperfluoro dodecanol]",Henry solubility constant Hcp,reference: Wu and Chang (2011),0.00013
S=C=S [carbon disulfide],Henry solubility constant Hcp,reference: De Bruyn et al. (1995b),0.00054
same,Henry solubility constant Hcp,reference: Elliott (1989),0.00062
"C=CCSCC=C [3,3'-thiobis-1-propene]",Henry solubility constant Hcp,reference: Lindinger et al. (1998),0.0041
"COC(=O)CCC(=O)OC [butanedioic acid, dimethyl ester]",Henry solubility constant Hcp,[7],30
"O=[N+]([O-])c1ccc(Oc2c(Cl)cc(Cl)cc2Cl)cc1 [2,4,6-trichlorophenyl 4-nitrophenyl ether]",Henry solubility constant Hcp,reference: Kawamoto and Urano (1989),> 8.1
"Clc1cc(Cl)c(-c2c(Cl)ccc(Cl)c2Cl)cc1Cl [2,2',3,4',5',6-hexachlorobiphenyl]",Henry solubility constant Hcp,[6],0.033
CC(=O)CC(C)C [4-methyl-2-pentanone],Henry solubility constant Hcp,reference: Hovorka et al. (2019),0.065
same,Henry solubility constant Hcp,reference: Kim et al. (2000),0.039
"FCC(F)(F)F [1,1,1,2-tetrafluoroethane]",Henry solubility constant Hcp,[12],0.00019
same,Henry solubility constant Hcp,reference: Maaßen (1995),0.00016
same,Henry solubility constant Hcp,reference: Reichl (1995),0.00016
same,Henry solubility constant Hcp,reference: Zheng et al. (1997),0.00016
"Clc1cccc(-c2ccc(Cl)cc2Cl)c1 [2,3',4-trichlorobiphenyl]",Henry solubility constant Hcp,[6],0.062
Cc1ccc(Br)cc1 [1-bromo-4-methylbenzene],Henry solubility constant Hcp,reference: Brockbank et al. (2013),0.0034
"C1COCO1 [1,3-dioxolane]",Henry solubility constant Hcp,[3],0.43
CN [methanamine],Henry solubility constant Hcp,reference: Christie and Crisp (1967),0.89
CCCOCCC [dipropyl ether],Henry solubility constant Hcp,reference: Hartkopf and Karger (1973),0.0022
FC(F)Cl [chlorodifluoromethane],Henry solubility constant Hcp,reference: Boggs and Buck (1958),0.00035
same,Henry solubility constant Hcp,[12],0.00017
same,Henry solubility constant Hcp,reference: Maaßen (1995),0.00035
same,Henry solubility constant Hcp,reference: Reichl (1995),0.00035
same,Henry solubility constant Hcp,reference: Zheng et al. (1997),0.00034
O=CCCCC=O [pentanedial],Henry solubility constant Hcp,reference: Olson (1998),300
C1=CCCC1 [cyclopentene],Henry solubility constant Hcp,[1],0.00023
C[CH2][Pb]([CH2]C)([CH2]C)[CH2]C [tetraethyl lead],Henry solubility constant Hcp,reference: Feldhake and Stevens (1963),1.3e-05
CN(C)c1nc(=O)n(C2CCCCC2)c(=O)n1C [hexazinone],Henry solubility constant Hcp,[11],> 99
CC(C)CS [2-methyl-1-propanethiol],Henry solubility constant Hcp,reference: Zin et al. (2016),0.001
COC(=O)c1ccccc1O [2-hydroxybenzoic acid methyl ester],Henry solubility constant Hcp,reference: Karl et al. (2008),0.33
"FC(F)(F)C(F)(F)C(Cl)Cl [3,3-dichloro-1,1,1,2,2-pentafluoropropane]",Henry solubility constant Hcp,reference: Kutsuna (2013),9.8e-05
"Clc1ccc(-c2cc(Cl)ccc2Cl)c(Cl)c1 [2,2',4,5'-tetrachlorobiphenyl]",Henry solubility constant Hcp,[6],0.049
